# Source: article PMC10791743, “Selective CK1α degraders exert antiproliferative activity against a broad range of human cancer cell lines” (Nature Communications, 2024)
# Experiments:
# Assay type in all cases: in vitro ADME
# [1] = Metabolic stability in cryopreserved hepatocytes, human; settings: Pooled Human Hepatocytes, 1 μM
# Description: (§1) page 34: UHPLC-MS/MS System: Chromatographic separation was performed on an Acquity UPLC BEH […] with 6500+ Qtrap system. […] software suite. The UPLC column was maintained at 55 °C. Mobile phase A was 0.1% formic acid in MilliQ H2O and Mobile phase B was 0.1% formic acid in acetonitrile. The flow rate was 0.9 […] The mass spectrometer was operated in positive-ion mode with electrospray ionization. MRM transition m/z […] plasma stability and plasma protein binding. The following MS parameters were employed for analyte measurements: ion spray voltage 5 kV, temperature 550 °C, gas 1 and gas 2 were 60, entrance potential (EP): 10 V, declustering potential (DP): 50 V, collision energy (CE): 27 V, and collision cell exit potential (CXP): 16 V. Metabolic Stability in mouse and human cryopreserved hepatocytes. 10 mM test compounds were provided by Compound Sample Group. Diluted 10 mM test compounds and 30 mM positive control compounds (7-ethoxycoumarin) to 1 mM and 3 mM with DMSO in 96-well plates. Diluted 1 mM test compounds and 3 mM positive control compounds to 100 μM and 300 μM dosing solutions with ACN. Cryopreserved cells were thawed, isolated and suspended in Incubation Medium, then diluted with pre-warmed Incubation Medium to 0.5 × 10^6cells/mL. Added 198 μL of pre-warmed cell suspensions in 96 -well plates. Transferred 125 μL of stop solution (acetonitrile containing 200 ng/mL tolbutamide and 200 ng/mL labetalol as internal standards) in a set of pre- labeled 96-well plates. Spike d 2 μL dosing solution to each well of 96 -well plates in duplicates. For T0 Samples, mix ed to achieve a homogenous suspension for about 1 min, then immediately transferred 25 μL of each sample into well containing 125 μL of ice -cold stop solution followed by mixing. Incubated all plates at 37°C in a 95% humidified incubator at 5% CO 2 to start the reactions page 35: with constant shaking at about 600 rpm. At 15, 30, 60 and 90 min, mixed samples and then transferred 25 μL of each sample at each time point to well containing 125 μL of ice -cold stop solution followed by mixing. Medium Control (MC) sample plates (labeled as T0-MC and T90- MC) were prepared at T0 and T90 by adding the same components to each well except cell suspensions. At each corresponding time point, stopped the reactions by removing the plates from incubator and mixing with 125 μL of ice-cold stop solution. Vortexed the plates immediately on a plate shaker at 500 rpm for 10 minutes. Then, centrifuge d all sample plates at 3220 x g for 20 min at 4°C. After centrifugation, 80 μL/well of supernatant in the sample plates were transferred to another set of pre-labeled 96-well plates which containing 240 μL of ultra pure water according to the plate map. Analytical plates were sealed and stored at 4°C until LC-MS/MS analysis. Thawing Medium: Williams' Medium E containing 5% fetal bovine serum and 30% Perc oll solution and other supplements. Incubation Medium: Williams' Medium E (no phenol red) containing 2 mM L-Glutamine and 25 mM HEPES. Stop Solution: Acetonitrile containing 200 ng/mL tolbutamide and labetalol as internal standards. Dilution Solution: Ultra-pure water. The remaining percents of test articles after incubation were calculated by the follow equations: Equation ( 6): Use equation of first order kinetics [NT] […] The data was […] concatenated with a reversed decoy database for evaluating False Discovery Rate (FDR). […]
# [2] = Metabolic stability in cryopreserved hepatocytes, mouse; settings: 1 μM; for Remaining: Pooled Mouse Hepatocytes
# Description: as §1
# [3] = Medium control without cells (hepatocyte stability assay); settings: 90 min, 1 μM
smiles,measurement,setting,value
O=C1CCC(N2Cc3cc(Nc4noc5ccccc45)ccc3C2=O)C(=O)N1 (stereo not shown) [SJ001043149-3],Remaining,[1]; 15 min,110.2%
same,Remaining,[1]; 30 min,88.9%
same,Remaining,[1]; 60 min,93.8%
same,Remaining,[1]; 90 min,108.9%
same,k,"[2]; Pooled Mouse Hepatocytes (first result line, species inferred from Ln(Remaining))",0.0013 min⁻¹
same,Remaining,[2]; 15 min,83.3%
same,Remaining,[2]; 30 min,86.1%
same,Remaining,[2]; 60 min,89.6%
same,Remaining,[2]; 90 min,81.4%
same,Remaining,[3],94.5%
